Laboratory results as given in patent US20210292265A1, “CHALCONES AND DERIVATIVES FOR USE IN MEDICAMENTS AND NUTRACEUTICALS” (HLXTH B.V., priority 2018, published 2021).

Experiments:
[1] = tested on: inflammasome induced IL-1β production; assay: IL-1β secretion (ELISA) in LPS/ATP stimulated, PMA differentiated THP-1 cells; format: cell-based; settings: for IC50: Homo sapiens, LPS (2 ng/ml, 4h) plus ATP (5 mM, 5 min), 1 hour pre-treatment, read-out: IC50 of inhibition of IL-1β secretion
Protocol: (§1) Evaluation of the effect of test compounds on inflammasome induced IL-1β or IL-18 generation and mTOR or caspase-1 activity was performed using PMA-differentiated THP-1 cells stimulated with LPS (2 ng/ml, 4h (LPS (sigma, cat #L3012)) plus ATP (5 mM, 5 min. (Sigma, cat #A1852)). PMA-differentiated THP-1 cells untreated with LPS/ATP were used as control. PMA (phorbol 12-myristate 13-acetate) stimulation was done by adding 150 nM PMA to the cell culture for 24 hours. followed by 24 hours of incubation in culture medium and removal of non-adherent cells.
(§2) The supernatant was collected immediately after experimental procedures for measurement of IL-1β ELISA (R&D Systems, cat #DY201) or IL-18 ELISA (R&D Systems, cat #7620) levels.
(§3) PMA-differentiated THP-1 cells, 1.5×10^5 cells/well, 96-well format
(§4) 1. Pre-treatment for 1 hour with experimental compounds. 2. LPS stimulation (2 ng/mL) for 4h of all conditions except unstimulated (LPS/ATP unstimulated) cells 3. ATP (5 mM) stimulation for 5 minutes of all conditions except unstimulated (LPS/ATP unstimulated) cells 4. Material collection: Supernatant and cell lysates (snap frozen, stored at −80° C.)

[2] = tested on: inflammasome induced IL-18 production; assay: IL-18 secretion (ELISA) in LPS/ATP stimulated, PMA differentiated THP-1 cells; format: cell-based; settings: dose dependent
Protocol: as §1, §2, §3, §4

mTOR = molecular target: T1, mTOR (Homo sapiens, UniProt P42345); assay: mTOR activity by phospho p70 S6K (Thr389) ELISA in PMA differentiated THP-1 cells; format: cell-based; settings: LPS/ATP stimulated and PMA differentiated THP-1 cells; read-out: IC50 of mTOR inhibition (phospho p70 S6K)
T1 construct: PMA-differentiated THP-1 cells, 1.5×10^5 cells/well, 96-well format; endogenous in cells; host or cells: PMA-differentiated THP-1 cells
Protocol: as §1
(§5) The cell lysates were collected accordingly the manufacturer's instructions for analysis of phospho p70 S6K (Thr389) (eBioscience, cat #85-86052) levels by ELISA, to determine the mTOR activity or to determine caspase-1 (R&D Systems cat #AF6215) levels by Western blot. As secondary antibody for the Western blot a HRP-conjugated anti-IG antibody (R&D Systems cat #HAF017) was used and immunoreactive bands were visualized by the Enhanced Chemiluminescence method (Thermo Scientific, Rockford, Ill.). All assays were performed accordingly to the respective manufacturers instructions.
as §3
1. Pre-treatment for 1 hour with experimental compounds. 2. LPS stimulation (2 ng/mL) for 4h of all conditions except unstimulated (LPS/ATP unstimulated) cells 3. […]

[3] = tested on: inflammasome induced caspase-1 production; assay: Caspase-1 levels by Western blot in LPS/ATP stimulated, PMA differentiated THP-1 cells; format: cell-based
Protocol: as §1, §5
1. Pre-treatment for 1 hour with experimental compounds. 2. […]
LPS/ATP stimulated, PMA differentiated THP-1 cells were incubated with a compound of formula I and caspase-I formation was analyzed and compared to a control without the compound.

[4] = tested on: 1K/DOCA/salt-treated mice; settings: cited from earlier work
[5] = tested on: myocardial ischemia reperfusion injury (MI/RI) rats; settings: I/R rats, 2.5, 5 and 10 mg/kg, 30 min occlusion, 2 h reperfusion; cited from earlier work
MCAO rats = settings: pretreatment once a day for 7 days, 2 h MCAO, 22 h reperfusion; cited from earlier work

O=C(/C=C/c1ccccc1O)c1ccc(O)cc1O [2,2′,4′-trihydroxychalcone]
IC50 [1]: 6.1 µM
effect on secretion of IL-18 [2]: inhibits the secretion of IL-18
IC50 (mTOR): 98.8 µM
effect on caspase-1 production [3]: inhibits caspase-1 production

CC(C)(O)c1coc(S(=O)(=O)NC(=O)Nc2c3c(cc4c2CCC4)CCC3)c1 [MCC950]
effect on hypertension [4]: reversed hypertension

Oc1ccc(/C=C/c2cc(O)cc(O)c2)cc1 [Resveratrol, resveratrol]
IC50 [1]: 87.3 µM
infarct volume and myocardial fibrosis [5]: significantly reduced

CO[C@H]1C[C@@H]2CC[C@@H](C)[C@@](O)(O2)C(=O)C(=O)N2CCCC[C@H]2C(=O)O[C@H]([C@H](C)C[C@@H]2CC[C@@H](O)[C@H](OC)C2)CC(=O)[C@H](C)/C=C(\C)[C@@H](O)[C@@H](OC)C(=O)[C@H](C)C[C@H](C)/C=C/C=C/C=C/1C [Rapamycin]
effect on production of IL-1β ([1]; LPS/ATP stimulated, Rapamycin 25, 50 and 100 nM): no effect

O=C(/C=C/c1ccc(O)cc1)c1ccc(O)cc1O [Isoliquiritigenin]
IC50 [1]: 11.9 µM
IC50 (mTOR): 174 µM
cerebral infarct volume and edema (MCAO rats): significantly reduced
